SMILES strings stand for the structures. Activity calls are given as the source filed them. No cut-off for these calls is given here.

In assay [1] the test system is Liposcelis entomophila. Description: Insecticidal activity against Liposcelis entomophila in compound pre-treated maize grains assessed as mortality at 8 ppm after 14 days (reference value: 14.4 +/-4.1%). Format: functional.
For assay [2], the system named is Liposcelis entomophila. Description: Insecticidal activity against Liposcelis entomophila in compound pre-treated maize grains assessed as mortality at 8 ppm after 7 days (reference value: 15.6 +/-6.9%). The format is functional.
The test system of assay [3] is Liposcelis bostrychophila. Description: Insecticidal activity against Liposcelis bostrychophila (booklice) in compound pre-treated maize grains assessed as decrease in progeny production at 8 ppm after 30 days. The format is functional, organism-based.
Assay [4] concerns Liposcelis bostrychophila. The assay can be described thus: Insecticidal activity against Liposcelis bostrychophila (booklice) in compound pre-treated maize grains assessed as mortality at 8 ppm after 14 days (reference value: 13.5 +/-5.3%). Format: functional.
The test system of assay [5] is Liposcelis bostrychophila. The assay can be described thus: Insecticidal activity against Liposcelis bostrychophila (booklice) in compound pre-treated maize grains assessed as mortality at 8 ppm after 7 days (reference value: 8.9 +/-2.6%). The format is functional.
The subject of assay [6] is Lepinotus reticulatus. Description: Insecticidal activity against Lepinotus reticulatus in compound pre-treated maize grains assessed as mortality at 8 ppm after 7 days (reference value: 34.4 +/-11.4%). Format: functional.
Assay [7] concerns Liposcelis entomophila. Description: Insecticidal activity against Liposcelis entomophila in compound pre-treated maize grains assessed as decrease in progeny production at 8 ppm after 30 days. Format: functional, organism-based.
Assay [8] concerns Lepinotus reticulatus. Description: Insecticidal activity against Lepinotus reticulatus in compound pre-treated maize grains assessed as decrease in progeny production at 8 ppm after 30 days. The format is functional, organism-based.
In assay [9] the test system is Lepinotus reticulatus. The assay can be described thus: Insecticidal activity against Lepinotus reticulatus in compound pre-treated maize grains assessed as mortality at 8 ppm after 14 days (reference value: 61.1 +/-11.9%). Format: functional.
Assay [10] relates to Liposcelis paeta. Description: Insecticidal activity against Liposcelis paeta in compound pre-treated maize grains assessed as mortality at 8 ppm after 14 days (reference value: 14.1 +/-4.1%). Format: functional.
The subject of assay [11] is Liposcelis paeta. Description: Insecticidal activity against Liposcelis paeta in compound pre-treated maize grains assessed as mortality at 8 ppm after 7 days (reference value: 13.3 +/-3.3%). Format: functional.

A word on the mortality: it is the percentage killed. Regarding `CCN(CC)c1nc(C)cc(OP(=S)(OC)OC)n1` [PIRIMIPHOS METHYL], the mortality at 8 ppm (with Liposcelis entomophila [1]; with Liposcelis entomophila [2]; in assay [4]; in assay [5]; in the assay on Lepinotus reticulatus [6]; with Lepinotus reticulatus [9]) was 100% in each case. For the same molecule, the results for the mortality at 8 ppm in the assay with Liposcelis paeta [10] and in the assay with Liposcelis paeta [11] were 100% and 97.8%, respectively. The inhibition result (in [3]; in the assay with Liposcelis entomophila [7]; in the assay on Lepinotus reticulatus [8]) was “Active” each time.

The values are drawn from ChEMBL document CHEMBL3044811, “Efficacy of grain protectants against four psocid species on maize, rice and wheat” (2009).
